Results reported in the Deep4Chem optical property database.
Blank lines part the entries; values can stand above or below the compound they belong to.

Experiment: solvent given as SMILES

SMILES: N#Cc1cccc2c(N)c(-c3nn([C@H]4C[C@H](O)[C@@H](CO)O4)c4ncnc(N)c34)ccc12
emission maximum (in C1COCCO1): 488 nm | emission maximum (in CC#N): 513 nm | emission maximum (in CC(C)O): 514 nm | emission maximum (in CCO): 520 nm | emission maximum (in CCOC(C)=O): 494 nm | emission maximum (in CN(C)C=O): 524 nm | emission maximum (in CO): 527 nm | emission maximum (in CS(C)=O): 534 nm | emission maximum (in OCC(O)CO): 522 nm | emission maximum (in OCCO): 529 nm

SMILES: CC1(C)Nc2ccccc2-c2[nH]c3ccccc3c(=O)c21
emission maximum (in C1CCOC1): 483 nm | emission maximum (in CC#N): 507 nm | emission maximum (in CCCCO): 521 nm | emission maximum (in CCCO): 522 nm | emission maximum (in CCO): 523 nm | emission maximum (in CCOC(C)=O): 491 nm | emission maximum (in CN(C)C=O): 506 nm | emission maximum (in CO): 531 nm | emission maximum (in CS(C)=O): 510 nm | emission maximum (in Cc1ccccc1): 471 nm | emission maximum (in ClC(Cl)(Cl)Cl): 460 nm | emission maximum (in ClCCl): 491 nm | emission maximum (in O): 552 nm | emission maximum (in c1ccccc1): 474 nm

SMILES: c1ccc(C2(c3ccccc3)c3ccc4ccc5ccccc5c4c3-c3c2ccc2ccc4ccccc4c32)cc1
emission maximum (in ClCCl): 421 nm

SMILES: Cc1ccc(/C=C/C(F)(F)F)c(N)c1
emission maximum (in C1CCOC1): 423 nm

SMILES: CC(C)(C)C1Nc2ccccc2C(=O)N1Cc1ccccc1 (centres undefined)
emission maximum (in CC#N): 409 nm | emission maximum (in CCCCCCCCCCCCCCCC): 381 nm | emission maximum (in CO): 439 nm | emission maximum (in ClC(Cl)Cl): 404 nm | emission maximum (in c1ccccc1): 393 nm

SMILES: COc1ccc(N2c3ccc4ccccc4c3-c3c4ccccc4cc[n+]3[B-]2(c2ccccc2)c2ccccc2)cc1
emission maximum (in Cc1ccccc1): 641 nm

SMILES: Cc1cccc2cc(-c3cc4cccc(C)c4oc3=O)oc12
emission maximum (in CC#N): 451 nm | emission maximum (in CCOC(C)=O): 436 nm | emission maximum (in CS(C)=O): 456 nm | emission maximum (in Cc1ccccc1): 436 nm | emission maximum (in O): 488 nm

SMILES: COCCOc1cc(C=O)c(OCCOC)cc1C=O
emission maximum (in CC(C)(C)O): 478 nm | emission maximum (in CC(C)CO): 479 nm | emission maximum (in CC(C)O): 479 nm | emission maximum (in CCCCO): 462 nm | emission maximum (in CCCO): 463 nm | emission maximum (in CCO): 464 nm | emission maximum (in CN(C)C=O): 465 nm | emission maximum (in CNC=O): 450 nm | emission maximum (in CO): 466 nm | emission maximum (in NC=O): 456 nm | emission maximum (in O): 495 nm

The next lines start with the values.

emission maximum (in C1CCOC1): 417 nm | emission maximum (in C1COCCO1): 417 nm | emission maximum (in CC#N): 417 nm | emission maximum (in CC(C)O): 423 nm | emission maximum (in CCO): 428 nm | emission maximum (in CCOC(C)=O): 415 nm | emission maximum (in CN(C)C=O): 422 nm | emission maximum (in CO): 432 nm | emission maximum (in CS(C)=O): 424 nm | emission maximum (in O): 449 nm
SMILES: NS(=O)(=O)c1ccc(N2N=C(c3ccc(O)cc3)CC2c2ccc(Br)cc2)cc1 (centres undefined)

emission maximum (in ClCCl): 514 nm
SMILES: COc1ccc(-c2c3cc4cc(C)sc4cc3c(-c3ccc(OC)cc3)c3cc4cc(C)sc4cc23)cc1

emission maximum (in ClCCl): 652 nm
SMILES: CCCCN1C(=O)c2cc(Oc3ccc(C(C)(C)C)cc3)c3c4c(Oc5ccc(C(C)(C)C)cc5)cc5c(=O)[nH]/c(=C\c6ccccn6)c6cc(Oc7ccc(C(C)(C)C)cc7)c(c7c(Oc8ccc(C(C)(C)C)cc8)cc(c2c37)C1=O)c4c56

emission maximum (in C1CCCCC1): 415 nm
SMILES: C#Cc1ccc(C#Cc2cnc(C#Cc3ccccc3)nc2)cc1

emission maximum (in C1CCCCC1): 391 nm
SMILES: COc1ccc2c3c(c4ccc(OC)cc4c2c1)C(C)(C)c1ccccc1-3

emission maximum (in ClC(Cl)Cl): 395 nm
SMILES: c1cc2c3cscc3c3ccsc3c2s1

emission maximum (in ClC(Cl)Cl): 388 nm
SMILES: CC(C)(C)c1ccc(-c2ccc(-c3c4c(nc5ccccc35)-c3cc5c(cc3CC4)-c3nc4ccccc4c(-c4ccc(-c6ccc(C(C)(C)C)cc6)cc4)c3CC5)cc2)cc1
